US7429663B2, “7-(Pyrimidin-4-yl)-Imidazo[1,2-a]Pyrimidin-5(1H)-ones as GSK3β inhibitors” (Sanofi-Aventis, priority 2002, dated 2008)

Experiments:
GSK3β = GSK3β (Homo sapiens, UniProt P49841); assay: Inhibitory activity against GSK3β (33P-ATP phosphorylation of prephosphorylated GS1 peptide, two protocols); type: biochemical; conditions: first or second protocol not specified
Method: Inhibitory Activity of the Medicament of the Present Invention Against GSK3β Two different protocols can be used. In a first protocol : 7.5 μM of prephosphorylated GS1 peptide and 10 μM ATP (containing 300,000 cpm of 33P-ATP) were incubated in 25 mM Tris-HCl, pH 7.5, 0.6 mM DTT, 6 mM MgCl2, 0.6 mM EGTA, 0.05 mg/ml BSA buffer for 1 hour at room temperature in the presence of GSK3β (total reaction volume : 100 microliters). In a second protocol : 4.1 μM of prephosphorylated GS1 peptide and 42 μM ATP (containing 260,000 cpm 33P-ATP) were incubated in 80 mM Mes-NaOH, pH 6.5, 1 mM Mg acetate, 0.5 mM EGTA, 5 mM 2-mercaptoethanol, 0.02% Tween 20, 10% glycerol buffer for 2 hours at room temperature in the presence of GSK3β. Inhibitors were solubilised in DMSO (final solvent concentration in the reaction medium, 1%). The reaction was stopped with 100 microliters of a solution made of 25 g polyphosphoric acid (85% P2O5), 126 ml 85% H3PO4, H2O to 500 ml and then diluted to 1:100 before use. An aliquot of the reaction mixture was then transferred to Whatman P81 cation exchange filters and rinsed with the solution described above. Incorporated 33P radioactivity was determined by liquid scintillation spectrometry. The phosphorylated GS-1 peptide had the following sequence: NH2-[…](P)EDEE-COOH. […]

Sequence of GSK3β (P49841 whole entry, species assumed): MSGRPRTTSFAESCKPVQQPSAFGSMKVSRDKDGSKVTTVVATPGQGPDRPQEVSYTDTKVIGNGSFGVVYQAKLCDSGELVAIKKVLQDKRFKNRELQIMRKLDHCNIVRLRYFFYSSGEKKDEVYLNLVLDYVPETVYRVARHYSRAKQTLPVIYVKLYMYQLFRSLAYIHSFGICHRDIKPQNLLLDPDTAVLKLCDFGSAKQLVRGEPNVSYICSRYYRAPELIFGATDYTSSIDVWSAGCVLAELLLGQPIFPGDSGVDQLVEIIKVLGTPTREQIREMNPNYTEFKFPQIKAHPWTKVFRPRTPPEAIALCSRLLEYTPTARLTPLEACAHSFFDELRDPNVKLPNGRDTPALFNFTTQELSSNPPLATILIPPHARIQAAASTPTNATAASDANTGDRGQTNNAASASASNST

SMILES	melting point	IC50 (GSK3β)
O=c1cc(-c2ccncn2)nc2n(CCc3cccc4ccccc34)ccn12 [compound 6, 1-(2-Naphthalen-1-yl-ethyl)-7-(pyrimidin-4-yl)-1H-imidazo[1,2-a]pyrimidin-5-one]	215 to 217 °C	21 nM
O=c1cc(-c2ccncn2)nc2n(CC(O)c3ccccc3)ccn12 (stereo not shown) [compound 11, 1-(2-Hydroxy-2-phenyl-ethyl)-7-(pyrimidin-4-yl)-1H-imidazo[1,2-a]pyrimidin-5-one]	159 to 161 °C	–
O=C(Cn1ccn2c(=O)cc(-c3ccncn3)nc12)c1ccccc1 [compound 12, 1-(2-Oxo-2-phenyl-ethyl)-7-(pyrimidin-4-yl)-1H-imidazo[1,2-a]pyrimidin-5-one]	240 to 242 °C	–
